The source of these data is article PMC3156940 (Biochimica et biophysica acta, 2011).

The assay has as its target KirBac1.1 (His6-KirBac1.1) (Burkholderia pseudomallei, UniProt P83698). Conditions: 200 nM [3H]cholesterol, 0.1% CHAPS, pH 7.5, 37 °C, 2 h.

Sequence of KirBac1.1 (His6-KirBac1.1) (P83698 1-333): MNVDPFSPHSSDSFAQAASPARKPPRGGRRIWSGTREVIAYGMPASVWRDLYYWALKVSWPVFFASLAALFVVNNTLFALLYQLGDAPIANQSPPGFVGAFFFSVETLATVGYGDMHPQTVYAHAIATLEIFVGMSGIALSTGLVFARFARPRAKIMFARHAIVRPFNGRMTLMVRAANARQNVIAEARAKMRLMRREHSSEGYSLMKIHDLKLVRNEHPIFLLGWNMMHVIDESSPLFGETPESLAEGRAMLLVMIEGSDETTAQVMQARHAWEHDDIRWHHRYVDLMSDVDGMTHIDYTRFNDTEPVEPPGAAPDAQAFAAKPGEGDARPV

Consider `C[C@H](CCCC(C)(C)O)[C@H]1CC[C@H]2[C@@H]3CC=C4C[C@@H](O)CC[C@]4(C)[C@H]3CC[C@]12C` [25-hydroxycholesterol], for which the “competition with [3H]cholesterol” value is given as 25-hydroxycholesterol was a significantly weaker competitor.
As to `CC(C)CCC[C@@H](C)[C@H]1CC[C@H]2[C@@H]3CC=C4C[C@H](O)CC[C@]4(C)[C@H]3CC[C@]12C` [epicholesterol], the “competition with [3H]cholesterol” value is reported as “epicholesterol efficiently competed with cholesterol for the channel binding”.
